Consider 14 compounds from patent US11242351B2, “Tricyclic inhibitors of the BCL6 BTB domain protein-protein interaction and uses thereof” (priority 2017, dated 2022).

The subject of assay [1] is BCL6 reporter construct in SuDHL4-3×BCL6-TK-Luc cells. In words: Cell-based luciferase assay (BCL6 reporter). The conditions noted are these: 48 h, read-out: Luc IC50. As for the experimental part:
Cell-Based Luciferase Assay:
A BCL6 reporter construct containing three copies of the consensus BCL6 binding site, the TK promoter, and the firefly luciferase gene was stably expressed in SuDHL4 cells after lentivirus infection and selection with Blasticidin. SuDHL4-3×BCL6-TK-Luc cells were seeded into a Viewplate 384-well assay dish at 15,000 cells/well in […] (Alpha-MEM high glucose containing 10% FBS, 25 mM HEPES, […] GlutaMAX, 100 µg/mL Normocin, and […] Gentamycin, Invitrogen). A HP D300 digital dispenser was used to dose cells with DMSO or test compounds across a 10-point range of concentrations (high dose of 10 μM), and cultures were grown in a humidified 5% CO2 incubator at 37° C. After two days, plates were removed from the incubator and equilibrated to room temperature. An equal volume of neolite reporter gene assay reagent was added to each well, and samples were processed according to the manufacturer's instructions (Perkin Elmer). The luminescent signal was measured using an Envision plate reader equipped with a US-Luminescence detector.

In assay [2] the test system is Karpas422 cells. The assay is described as follows: Tumor cell growth inhibition assay. The class given is cell-based. Particulars: Homo sapiens, KARPAS-422, 144 h, read-out: GI Karpas EC50. The protocol: Tumor Cell Growth Inhibition Assay:
Karpas422 cells were seeded into a 96-well plate at 2,000 cells/well in 150 μl medium (Alpha-MEM containing 10% FBS, […] Normocin, and […] Gentamycin, Invitrogen). A HP D300 digital dispenser was used to dose cells with DMSO or test compounds across a 10-point range of concentrations (high dose of 5 μM), and cultures were grown in a humidified 5% CO2 incubator at 37° C. After six days, plates were removed from incubator and equilibrated to room temperature. An equal volume of ATPlite assay reagent was added to each well, and samples were processed according to the manufacturer's instructions (Perkin Elmer). The luminescent signal was measured using an Envision plate reader equipped with a US-Luminescence detector.

For assay [3], the target named is BCL6 BTB domain (biotin-thrombin-BCL6 amino acids 1-129) (Homo sapiens (Human), UniProt P41182). The assay is described as follows: Surface Plasmon Resonance (SPR) assay. It counts as binding. The conditions noted are these: Biacore T200, single cycle kinetic analysis. The protocol: Surface Plasmon Resonance (SPR) Assay
SPR studies were performed using a Biacore™ T200 instrument (GE Health Sciences Inc.). […] The Biacore flow rate was set at 100 μl/min. […] Curve fitting and KD calculations were performed with the Biacore T200 Evaluation software (GE Health Sciences Inc).
A general note: In SPR one partner is held on a chip, and binding of the other changes the refractive index at the surface.

The mark [4] stands for this setting: SuDHL4-3×BCL6-TK-Luc cells, two days.
Where [5] appears, read: Karpas422 cells, six days, ATPlite.

SMILES strings stand for the structures. Like-named read-outs stand apart in the source and are kept apart here.

With `C[C@H]1CN(C2COC2)CCN1c1cc(NC(=O)Cn2cc(-c3cc(C(N)=O)c(O)c(F)c3F)c3c(=O)n4c(nc32)COCC4)c(Cl)c(F)n1` [I-34, (S)-5-(1-(2-((3-chloro-2-fluoro-6-(2-methyl-4-(oxetan-3-yl)piperazin-1-yl)pyridin-4-yl)amino)-2-oxoethyl)-4-oxo-4,6,7,9-tetrahydro-1H-pyrrolo[2′,3′:4,5]pyrimido [2,1-c][1,4]oxazin-3-yl)-3,4-difluoro-2-hydroxy-benzamide], the IC50 in assay [1] came to 155 nM. Besides, in assay [2], the EC50 was found to be 177 nM. The Kd in assay [3] worked out at 7.24 nM.

With `CCN1CCN(c2cc(NC(=O)Cn3cc(-c4cc(Cl)c(O)c(C(N)=O)c4)c4c(=O)n5c(nc43)CCC5)c(Cl)c(F)n2)[C@@H](C)C1` [I-82, (S)-3-chloro-5-(1-(2-((3-chloro-6-(4-ethyl-2-methylpiperazin-1-yl)-2-fluoropyridin-4-yl)amino)-2-oxoethyl)-4-oxo-4,6,7,8-tetra-hydro-1H-dipyrrolo [1,2-a:2′,3′-d]pyrimi-din-3-yl)-2-hydroxy-benzamide], the IC50 in assay [1] (setting [4]) amounted to 63.1 nM. The EC50 in assay [2] (setting [5]) turned out to be 27.8 nM. In assay [3], this compound gave a Kd of 4.13 nM.

As for `C[C@H]1CNCCN1c1cc(NC(=O)Cn2cc(-c3cc(C(N)=O)c(O)c4c3OCO4)c3c(=O)n4c(nc32)CCC4)c(Cl)c(F)n1` [I-90, (S)-7-(1-(2-((3-chloro-2-fluoro-6-(2-methyl-piperazin-1-yl)pyridin-4-yl)amino)-2-oxo-ethyl)-4-oxo-4,6,7,8-tetrahydro-1H-dipyrrolo [1,2-a:2′,3′-d]pyrimidin-3-yl)-4-hydroxybenzo [d][1,3]dioxole-5-carboxamide], the IC50 in assay [1] (setting [4]) turned out to be 23.5 nM. For the same compound, the EC50 in assay [2] (setting [5]) was 22 nM. The compound further returned a Kd in assay [3] of 0.7 nM.

On to `C[C@H]1CN(C2COC2)CCN1c1cc(NC(=O)Cn2cc(-c3cc(C(N)=O)c(O)c(F)c3F)c3c(=O)n4c(nc32)CCCCC4)c(Cl)c(F)n1` [I-50, (S)-5-(1-(2-((3-chloro-2-fluoro-6-(2-methyl-4-(oxetan-3-yl)piperazin-1-yl)pyridin-4-yl)amino)-2-oxo-ethyl)-4-oxo-4,6,7,8,9,10-hexahydro-1H-pyrrolo [2′,3′:4,5]pyrimido [1,2-a]azepin-3-yl)-3,4-difluoro-2-hydroxybenzamide], for which, in assay [1] (setting [4]), the IC50 amounted to 395 nM. Further, in assay [2] (setting [5]), the EC50 amounted to 475 nM. The affinity in assay [3], expressed as Kd, was 43 nM.

For `CCN1CCN(c2cc(NC(=O)Cn3cc(-c4cc(C(N)=O)c(O)c(F)c4F)c4c(=O)n5c(nc43)CCCCC5)c(Cl)c(F)n2)[C@@H](C)C1` [I-52, (S)-5-(1-(2-((3-chloro-6-(4-ethyl-2-methyl-piperazin-1-yl)-2-fluoropyridin-4-yl)amino)-2-oxoethyl)-4-oxo-4,6,7,8,9,10-hexahydro-1H-pyrrolo [2′,3′:4,5]pyrimido [1,2-a]azepin-3-yl)-3,4-difluoro-2-hydroxy-benzamide], in assay [1] (setting [4]), the IC50 worked out at 820 nM. The EC50 in assay [2] (setting [5]) came out at 1670 nM. The same compound yielded a Kd in assay [3] of 76.5 nM.

In the case of `C[C@@H](C1CC1)N1CCN(c2cc(NC(=O)Cn3cc(-c4cc(C(N)=O)c(O)c(F)c4F)c4c(=O)n5c(nc43)CCC5)c(Cl)c(F)n2)[C@@H](C)C1` [I-38, 5-(1-(2-((3-chloro-6-((S)-4-((S)-1-cyclo-propylethyl)-2-methyl-piperazin-1-yl)-2-fluoropyridin-4-yl)amino)-2-oxoethyl)-4-oxo-4,6,7,8-tetrahydro-1H-dipyrrolo [1,2-a:2′,3′-d]pyrimidin-3-yl)-3,4-difluoro-2-hydroxybenzamide], in assay [1] (setting [4]), the IC50 was 193 nM. In assay [2] (setting [5]), the EC50 is 444 nM. In assay [3], this compound registered a Kd of 32.5 nM.

`C[C@H]1CN(C)C[C@H](C)N1c1cc(NC(=O)Cn2cc(-c3cc(C(N)=O)c(O)c(F)c3F)c3c(=O)n4c(nc32)CCC4)c(Cl)c(F)n1` [I-73, 5-(1-(2-((3-chloro-2-fluoro-6-((2S,6S)-2,4,6-trimethyl-piperazin-1-yl)pyridin-4-yl)amino)-2-oxo-ethyl)-4-oxo-4,6,7,8-tetrahydro-1H-dipyrrolo [1,2-a:2′,3′-d]pyrimidin-3-yl)-3,4-difluoro-2-hydroxybenzamide]: in assay [1], the half-inhibitory concentration (IC50) is 1050 nM. The EC50 in assay [2] worked out at 648 nM. The Kd in assay [3] came out at 58.6 nM.

As for `C[C@H]1CN(C)CCN1c1cc(NC(=O)Cn2cc(-c3cc(Cl)c(O)c(C(N)=O)c3)c3c(=O)n4c(nc32)CC(C)(C)C4)c(Cl)c(F)n1` [I-60, (S)-3-chloro-5-(1-(2-((3-chloro-6-(2,4-dimethylpiperazin-1-yl)-2-fluoropyridin-4-yl)amino)-2-oxoethyl)-7,7-dimethyl-4-oxo-4,6,7,8-tetrahydro-1H-dipyrrolo[1,2-a:2′,3′-d]pyrimidin-3-yl)-2-hydroxybenzamide], the IC50 in assay [1] turned out to be 186 nM. Besides, the EC50 in assay [2] was determined as 97.2 nM. The same compound yielded a Kd in assay [3] of 13.4 nM.

As for `C[C@@H]1CN(C)C[C@H](C)N1c1cc(NC(=O)Cn2cc(-c3cc(C(N)=O)c(O)c(F)c3F)c3c(=O)n4c(nc32)CCC4)c(Cl)c(F)n1` [I-97, 5-(1-(2-((3-chloro-2-fluoro-6-((2R,6S)-2,4,6-trimethylpiperazin-1-yl)pyridin-4-yl)amino)-2-oxoethyl)-4-oxo-4,6,7,8-tetrahydro-1H-dipyrrolo[1,2-a:2′,3′-d]pyrimidin-3-yl)-3,4-difluoro-2-hydroxy-benzamide], the IC50 in assay [1] worked out at 63.5 nM. Moreover, in assay [2], the EC50 came to 70.9 nM. Also, binding in assay [3] was put at a Kd of 11.9 nM.

Consider `COc1c(-c2cn(CC(=O)Nc3cc(N4CCN(C5COC5)C[C@@H]4C)nc(F)c3Cl)c3nc4n(c(=O)c23)CCC4)cc(C(N)=O)c(O)c1OC` [I-72, (S)-5-(1-(2-((3-chloro-2-fluoro-6-(2-methyl-4-(oxetan-3-yl)pipera-zin-1-yl)pyridin-4-yl)amino)-2-oxoethyl)-4-oxo-4,6,7,8-tetra-hydro-1H-dipyrrolo [1,2-a:2′,3′-d]pyrimi-din-3-yl)-2-hydroxy-3,4-dimethoxy-benzamide], for which the IC50 in assay [1] came out at 1560 nM. Further, the EC50 in assay [2] is 429 nM. This compound displayed a Kd in assay [3] of 85.1 nM.

As to `C[C@H]1CN(CC(CO)CO)CCN1c1cc(NC(=O)Cn2cc(-c3cc(C(N)=O)c(O)c(F)c3F)c3c(=O)n4c(nc32)CCC4)c(Cl)c(F)n1` [I-46, (S)-5-(1-(2-((3-chloro-2-fluoro-6-(4-(3-hydroxy-2-(hydroxymethyl)propyl)-2-methylpiperazin-1-yl)pyridin-4-yl)amino)-2-oxoethyl)-4-oxo-4,6,7,8-tetrahydro-1H-dipyrrolo[1,2-a:2′,3′-d]pyrimidin-3-yl)-3,4-difluoro-2-hydroxybenzamide], the IC50 in assay [1] (setting [4]) was 935 nM. Besides, the EC50 in assay [2] (setting [5]) came out at 487 nM. Moreover, the Kd in assay [3] amounted to 3.13 nM.

For the compound `C[C@H]1CN(C2COC2)CCN1c1cc(NC(=O)Cn2cc(-c3cc(C(N)=O)c(O)c(F)c3F)c3c(=O)n4c(nc32)CCC4)c(Cl)cn1` [I-7, (S)-5-(1-(2-((5-chloro-2-(2-methyl-4-(oxetan-3-yl)piperazin-1-yl)pyridin-4-yl)amino)-2-oxoethyl)-4-oxo-4,6,7,8-tetrahydro-1H-dipyrrolo[1,2-a:2′,3′-d]pyrimidin-3-yl)-3,4-difluoro-2-hydroxy-benzamide], the IC50 in assay [1] (setting [4]) worked out at 213 nM. Also, the EC50 in assay [2] (setting [5]) came out at 299 nM. In assay [3], the Kd is 17.6 nM.

Take `C[C@H]1COCCN1c1cc(NC(=O)Cn2cc(-c3cc(C(N)=O)c(O)c(F)c3F)c3c(=O)n4c(nc32)CC(C)(C)C4)c(Cl)c(F)n1` [I-58, (S)-5-(1-(2-((3-chloro-2-fluoro-6-(3-methyl-morpholino)pyridin-4-yl)amino)-2-oxoethyl)-7,7-dimethyl-4-oxo-4,6,7,8-tetrahydro-1H-dipyrrolo[1,2-a:2′,3′-d]pyrimidin-3-yl)-3,4-difluoro-2-hydroxy-benzamide]: in assay [1] (setting [4]), the IC50 came to 190 nM. For the same compound, the EC50 in assay [2] (setting [5]) amounted to 96.2 nM. The compound also displayed a Kd in assay [3] of 28.7 nM.

On to `CC1Cc2nc3c(c(-c4cc(C(N)=O)c(O)c(F)c4F)cn3CC(=O)Nc3cc(N4CCOC[C@@H]4C)nc(F)c3Cl)c(=O)n2C1` (stereo partly drawn) [I-64, 5-(1-(2-((3-chloro-2-fluoro-6-((S)-3-methylmorpholino)pyridin-4-yl)amino)-2-oxoethyl)-7-methyl-4-oxo-4,6,7,8-tetrahydro-1H-dipyrrolo [1,2-a:2′,3′-d]pyrimidin-3-yl)-3,4-difluoro-2-hydroxybenzamide], for which the IC50 in assay [1] (setting [4]) was 380 nM. In assay [2] (setting [5]), the EC50 came to 174 nM. The same compound returned a Kd in assay [3] of 27.4 nM.

As usually defined, the IC50 is the concentration that inhibits the measured activity by half. By EC50 is commonly meant the midpoint of the concentration-response curve. By Kd is commonly meant the constant that tells how readily two partners part at equilibrium. Higher therefore signals lower affinity.
